Common to all, as to assay: Serum angiogenic marker ELISA
Common to all, as to type: in vivo, human

One assay relates to Ang-1. As to conditions: end of cycles 1, 2, 4 and 6 vs pre-dose cycle 1 day 1; any dose. The procedure: (§1) Pharmacodynamic measures were assessed by percentage changes in serum angiogenic markers and correlated with tumour response. The baseline used was that measured at cycle visit 1 day 1 pre-selumetinib treatment. Analysis of longitudinal data was performed using a mixed effects repeated measured regression, with a trend line and 90% CI derived using the fixed effect estimates from the model.
(§2) Circulating angiogenic biomarkers on cycle 1 day 1 pre-treatment, cycle 2 day 1, cycle 3 day 1, cycle 5 day 1 and end of cycle 6 (all ±1 day except cycle 1 day 1 pre-treatment).
(§3) HIV-1 viral load and CD4 counts were measured as per standard of care at hospital sites. To measure the concentration of angiogenesis markers, 8.5 ml blood was collected in BD vacutainer no-additive serum tubes. Samples were kept at room temperature for 30 minutes before centrifugation at 2000 g for 20 minutes at room temperature. Serum samples were then stored at -80 °C prior to analysis. Serum Ang-1, Ang-2 and TIE levels were assessed using commercial ELISAs (Thermo Fisher Scientifc hAng-1 (EHANGPT1), R&D DuoSet Ang-2 (DY623), eBioscience hTIE2 (BMS2042)), according to manufacturer instructions at laboratories at the University of Sheffield.

The next assay concerns Ang-2. The procedure:
as §1, §2, §3

The next assay deals with Tie-2. The following applies: end of cycles 1, 2, 4 and 6 vs pre-dose cycle 1 day 1; any dose. The procedure: as §1, §2, §3

“Also recorded” adds a separate entry of the source.

For the compound `Cn1cnc2c(F)c(Nc3ccc(Br)cc3Cl)c(C(=O)NOCCO)cc21` [selumetinib, 6-(4-Bromo-2-chloro-phenylamino)-7-fluro-3-methyl-3 H-benzoimidazole-5-carboxylic acid (2-hydroxy-ethoxy)-amide hydrogen sulphate], the “change in circulating level of Ang-1” value with Ang-1 is recorded as “no significant changes”. Moreover, the “change in circulating level of Ang-2” value in the assay with Ang-2 (end of cycles 1, 2, 4 and 6 vs pre-dose cycle 1 day 1, any dose) was “no significant changes”. Further, the “serum levels of Ang-2 on treatment compared to baseline (trend)” value in the assay with Ang-2 (on selumetinib treatment) was “tended to be lower”. The “change in circulating level of Tie-2” value in the assay on Tie-2 was “no significant changes; also recorded: no changes were observed”.

(Values after paper PMC11921695 (BMC Cancer, 2025).)
